Test results from PMC7002685, “Inhibition of vascular calcification by inositol phosphates derivatized with ethylene glycol oligomers” (Nature Communications, 2020).

Key:
[1] = molecular target: T1, Transporter, Dopamine (DAT) (Homo sapiens, UniProt Q01959); test: Off-target 220320; type: binding
T1 construct: purchased Eurofins Panlabs Discovery Services Taiwan, Ltd
Procedure: (§1) The potential off-target activity of 10 µM (OEG2)2-IP4 was assessed against a panel of 87 enzymes, receptors, or ion channels that are used in standard safety pharmacology screens.
(§2) 3.2. Off-target screening assay
The experiments were conducted by a contract research organization (Eurofins Panlabs Discovery
Services Taiwan, Ltd.) and details on the respective assays can be retrieved via the catalog number
provided in Supplementary Table 11 from the company’s webpage
(§3) (https://www.eurofinsdiscoveryservices.com/). […]

[2] = molecular target: T2, Adenosine A2A (Homo sapiens, UniProt P29274); test: Off-target 200610; type: binding
T2 construct: purchased Eurofins Panlabs Discovery Services Taiwan, Ltd
T2 sequence (P29274 whole entry): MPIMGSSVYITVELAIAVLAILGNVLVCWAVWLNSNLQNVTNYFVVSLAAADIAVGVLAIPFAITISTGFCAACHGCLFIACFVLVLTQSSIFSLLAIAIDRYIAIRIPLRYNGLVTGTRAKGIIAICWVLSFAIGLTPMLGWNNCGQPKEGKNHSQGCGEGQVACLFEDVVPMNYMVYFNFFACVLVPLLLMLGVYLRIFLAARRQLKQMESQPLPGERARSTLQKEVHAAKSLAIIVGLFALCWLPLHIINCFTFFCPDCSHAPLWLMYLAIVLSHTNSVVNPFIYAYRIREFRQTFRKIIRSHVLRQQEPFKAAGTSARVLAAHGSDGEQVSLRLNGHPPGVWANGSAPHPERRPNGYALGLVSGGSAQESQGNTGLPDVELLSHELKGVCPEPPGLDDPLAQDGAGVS
Procedure: as §1, §2
(§4) The experiments were conducted by a contract research organization (Eurofins Panlabs Discovery Services Taiwan, Ltd.) and details on the respective assays can be retrieved via the catalog number provided in Supplementary Table 11 from the company’s webpage
as §3
(§5) At sacrifice the left tibia of animals of the rat model with dietary adenine/high-phosphate-induced uremia and VC was collected, fixed with 70% v/v EtOH and embedded in methyl methacrylate. The trabecular bone compartment is known to be the most metabolic active i.e. actively re-structured bone compartment in CKD. Therefore, histomorphometric and micro-computed tomography (µCT) analysis of bone was performed on the trabecular compartment. Tibial sections were Goldner-stained for histomorphometric analysis of the proximal metaphysis using the AxioVision Release 4.5 software, as […]
(§6) described previously5. […]

[3] = molecular target: T3, Muscarinic M2 (Homo sapiens, UniProt P08172); test: Off-target 252710; type: binding
T3 construct: purchased Eurofins Panlabs Discovery Services Taiwan, Ltd
T3 sequence (P08172 whole entry): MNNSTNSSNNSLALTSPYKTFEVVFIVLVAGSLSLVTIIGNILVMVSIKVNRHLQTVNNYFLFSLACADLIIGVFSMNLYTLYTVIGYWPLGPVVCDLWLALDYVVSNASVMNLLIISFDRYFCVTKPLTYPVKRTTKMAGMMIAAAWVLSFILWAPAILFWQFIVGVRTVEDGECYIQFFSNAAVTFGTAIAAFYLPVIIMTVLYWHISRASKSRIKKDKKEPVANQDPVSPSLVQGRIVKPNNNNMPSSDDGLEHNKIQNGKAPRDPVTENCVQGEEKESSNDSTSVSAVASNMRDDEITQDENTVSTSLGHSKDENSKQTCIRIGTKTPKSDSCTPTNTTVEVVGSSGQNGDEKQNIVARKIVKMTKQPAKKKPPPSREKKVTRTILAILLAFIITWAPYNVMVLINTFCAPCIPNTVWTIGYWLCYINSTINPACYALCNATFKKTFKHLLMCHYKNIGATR
Procedure: as §1, §2, §4, §3, §5, §6

[4] = Precipitation in culture medium (naked eye, microscope); type: physicochemical; conditions: 100 µM, VSMC and macrophage assays
Procedure: Macrophage accumulation and inflammation coincide with the initial phase of calcification. To this end, VSMCs and THP-1-derived macrophages were exposed to CPP2-supplemented medium. CPP2 prepared from human serum as described previously[61] (Supplementary Figs. 6 and 7), induced a pronounced VSMC monolayer calcification after 48 h, which was decreased by (OEG2)2-IP4 in a dose-dependent fashion, and the effect became significant at 10 µM (Fig. 3e). […] Both H2O2 (proxy for oxidative stress) and tumor necrosis factor-alpha (TNF-α) (proxy for inflammatory response) levels were assayed in the VSMC culture supernatants subsequent to CPP2 treatment with and without compounds[30]. However, no increase in H2O2 nor TNF-α compared to control could be detected in either assay. For the CPP-induced VSMC calcification assay (Fig. 3e) a roughly 10-fold higher concentration of (OEG2)2-IP4 was necessary to achieve similar activity as in the CaP-induced VSMC calcification assay (Fig. 3b). […]
Occurrence of precipitation in the different treatment groups was assessed visually by the naked eye and by a microscope (CTR6000, Leica Camera AG) at ×25 magnification at 0 and 24 h (performed once in duplicate).

T1 sequence (Q01959 whole entry): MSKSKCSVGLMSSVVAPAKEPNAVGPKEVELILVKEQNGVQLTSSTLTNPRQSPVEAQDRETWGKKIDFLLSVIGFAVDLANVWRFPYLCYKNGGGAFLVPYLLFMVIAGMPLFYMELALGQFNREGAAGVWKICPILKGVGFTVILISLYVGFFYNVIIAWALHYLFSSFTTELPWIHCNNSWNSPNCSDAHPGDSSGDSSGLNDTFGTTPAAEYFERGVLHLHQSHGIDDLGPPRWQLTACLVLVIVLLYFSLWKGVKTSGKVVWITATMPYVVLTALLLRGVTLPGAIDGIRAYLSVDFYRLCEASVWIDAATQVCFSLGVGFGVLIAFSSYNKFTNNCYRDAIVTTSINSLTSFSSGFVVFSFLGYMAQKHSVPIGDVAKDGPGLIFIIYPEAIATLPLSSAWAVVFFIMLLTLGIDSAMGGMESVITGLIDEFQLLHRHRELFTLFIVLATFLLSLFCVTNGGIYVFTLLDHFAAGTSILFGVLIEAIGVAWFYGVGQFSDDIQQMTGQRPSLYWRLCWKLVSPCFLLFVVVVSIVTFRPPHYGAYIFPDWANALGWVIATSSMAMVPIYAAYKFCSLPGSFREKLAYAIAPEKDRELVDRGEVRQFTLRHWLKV

SMILES	inhibition at 10 µM [1] [%]	inhibition at 10 µM [2] [%]	inhibition at 10 µM [3] [%]	precipitation in culture medium [4]
COCCOCCO[C@@H]1[C@@H](OP(=O)(O)O)[C@H](OCCOCCOC)[C@@H](OP(=O)(O)O)[C@@H](OP(=O)(O)O)[C@H]1OP(=O)(O)O [(OEG2)2-IP4, 4,6-Di-O-(methoxy-diethyleneglycol)-myo-inositol-1,2,3,5-tetrakis(phosphate)]	19	5	4	
O=P(O)(O)O[C@H]1[C@H](OP(=O)(O)O)[C@@H](OP(=O)(O)O)[C@H](OP(=O)(O)O)[C@@H](OP(=O)(O)O)[C@H]1OP(=O)(O)O [IP6, myo-Inositol hexakisphosphate]				precipitation in culture medium occurred
